In publication PMC12040169 (PLOS Biology, 2025) one finds viability data, which are given here for 58 compounds.

The nature of the data set: in vitro. The settings on record: human, hela cells, % viability.

For the compound `O=C1CC2CC3CC2C(Sc2ccccc2)C3O1` (stereo not shown) [CBK016225], the viability at 28.5 h, 10 µM is 97.4%.
Still for that read-out and setting: as for `CCC(CN1CCOCC1)NC(=O)Cc1coc2c(C)c(C)ccc12` (stereo not shown) [CBK282813], the figure is 82.1%; as for `O=C(/C=C/c1ccco1)Nc1sc2c(c1C(=O)NCc1ccco1)CCC2` [CBK265616], 104%.
In the case of `Cc1ccc(Cn2nc(C(=O)Nc3cc(C)nn3C)c3ccccc32)cc1` [CBK047842], where the note is “bulk resorufin, single well”, the viability at 28.5 h, 10 µM turned out to be 77.9%.
For `O=C(O)c1oc2ccccc2c1CN1CCN(c2ccccc2)CC1` [CBK286948], the viability at 28.5 h, 10 µM is 115%.
Same read-out and setting: as for `O=C(c1cccc(F)c1)N1CCCC1c1n[nH]cc1-c1ccncc1` (stereo not shown) [CBK283437], the figure is 93.2%; as for `O=C1N[C@H]2CCCN(C(=O)Cn3cccnc3=O)[C@H]2CCCCCOc2ccccc21` [CBK292096], 109%.
Same read-out and setting: as for `CN(CC(=O)NC1CCCCC1)S(=O)(=O)c1ccc(F)cc1` [CBK091832], the figure is 98.6%; as for `O=C1NCC2(C/C=C/CCOc3ccccc31)CCN(C(=O)c1ccncc1)CC2` [CBK292018], 105%; as for `CCC1CCCCN1C(=O)c1cc(C)nc(Cl)c1` (stereo not shown) [CBK076748], 102%.
Still for that read-out and setting: as for `Cc1cc(C)c2c(OCC(=O)N(C)CC(=O)NC(C)C)nn(C)c2n1` [CBK304931], the figure is 84.1%.
As to `CN(C)CCN(C)c1ccc(-c2ccc(F)c(Cl)c2)cn1` [CBK036979], the viability at 28.5 h, 10 µM worked out at 96.8%.
The same measure, in the same setting: the value for `CC(C)(C)NC(=O)CCn1c(-c2ccncc2)cc2cccnc21` [CBK282620] was 95.4%; that for `COc1ccc(C(=O)Nc2noc3nc(C)ccc23)cc1OC` [CBK287832] was 89.7%; that for `Cc1nnc(SCCN2CCOC2=O)n1CCc1cccs1` [CBK304029] was 93.7%.
Same read-out and setting: the value for `CCOC(=O)Cn1c(CN2CCCCC2C)nc2c1c(=O)n(C)c(=O)n2C` (stereo not shown) [CBK269382] was 95.1%; that for `O=C(c1cccs1)n1ccc(-c2ccc3c(c2)CCO3)n1` [CBK006090] was 97.6%; that for `Clc1ccccc1-c1nnn(Cc2ccc(-c3nnn[nH]3)cc2)n1` [CBK267838] was 89.3%.
Still for that read-out and setting: the value for `COC(=O)CCc1ccc(-c2cnc(N)c(-c3ccc(O)cc3)n2)cc1` [CBK122809] was 88.9%; that for `CC(Oc1ccc(Br)cc1)C(=O)Nc1nc2c(s1)CCC2` (stereo not shown) [CBK296723] was 84.8%; that for `CN1CCC(N2C[C@H](O)C[C@H]2c2nc(-c3ccc4c(c3)OCO4)no2)CC1` [CBK288931] was 93.6%.
`c1cnn(CC2CCCN2c2ncnc3sccc23)c1` (stereo not shown) [CBK304968]: the viability at 28.5 h, 10 µM stood at 92.5%.
In the case of `O=C(CCc1ccccc1)Nc1cccc(N2C(=O)C3C4c5ccccc5C(c5ccccc54)C3C2=O)c1` (stereo not shown) [CBK265409], the viability at 28.5 h, 10 µM is 91.1%.
Same read-out and setting: as for `O=C(CNC(=O)c1ccco1)Nc1cccc(-c2nc3ccccc3s2)c1` [CBK295142], the figure is 85.4%; as for `COc1cc2oc(=O)c(CC(=O)N3CCCC(C(=O)O)C3)c(C)c2cc1Cl` (stereo not shown) [CBK286754], 107%.
The same measure, in the same setting: the value for `CCSc1nn(CC)c2oc3c(c2c1=S)CC(C)(C)OC3` [CBK021960] was 105%.
On the same count and under the same terms, as for `COc1ccc(C(=O)C(OC(=O)c2cc(O)nc3ccccc23)c2ccccc2)cc1` (stereo not shown) [CBK264083], the figure is 97.1%.
Turning to `C#C[C@H]1C[N@@]2CC[C@H]1C[C@@H]2CNC(=O)Nc1cccc(C#N)c1` [CBK288754], the viability at 28.5 h, 10 µM is 97.2%.
On the same count and under the same terms, the value for `CN1CC(=O)N(c2ccc(Cl)cc2Cl)C1=O` [CBK116319] was 93%; that for `CCCCc1c(C(=O)O)cc(OC)cc1C(=O)O` [CBK217866] was 93.5%; that for `Cc1nc(N)nc(N2CCN(C)CC2)n1` [CBK015681] was 100%.
On the same count and under the same terms, as for `COCCOc1ccc(C(=O)N2CCN(c3ccccc3)CC2)cc1` [CBK304626], the figure is 106%; as for `OCCc1ccc(Nc2cc(-c3ccsc3)ncn2)cc1` [CBK090769], 103%; as for `Cc1nc2c(c(=O)[nH]1)CN(Cc1ccccc1F)CC2` [CBK283948], 89.3%.
The same measure, in the same setting: the value for `CC(=O)c1ccc(O)c2ncccc12` [CBK015821] was 110%; that for `CC(=O)NC1CCN(CC2(c3cccc(F)c3)CCCC2)CC1` [CBK282590] was 95.7%.
For `Cc1ccc(C(=O)O)cc1S(=O)(=O)N(C)CCO` [CBK267167], the viability at 28.5 h, 10 µM stood at 94.1%.
The same measure, in the same setting: as for `Cc1ccc(Cn2c(OCCN(C)C)nc3c2c(=O)n(C)c(=O)n3C)cc1` [CBK134241], the figure is 89.3%; as for `COc1ccc(Cl)cc1N1CCN(CC(=O)Nc2ccc(F)c(Cl)c2)CC1` [CBK126417], 101%.
The same measure, in the same setting: as for `OCC1COCCN(c2ncnc3c2CCC3)C1` (stereo not shown) [CBK304373], the figure is 103%; as for `COC(=O)c1c(NC(=S)Nc2ccc(Br)cn2)sc2c1CCC2` [CBK266862], 92.9%.
Same read-out and setting: as for `CC(C)C(=O)Nc1nc2c(nc(OCc3ccccc3)n2C2CC(O)C(CO)O2)c(=O)[nH]1` (stereo not shown) [CBK201264], the figure is 91.8%; as for `COc1cccc(/C=C2\SC(=S)N(CC(=O)NNC(=O)c3ccccc3O)C2=O)c1` [CBK262202], 91.1%; as for `COc1cccc2sc(NC(=O)c3c(F)cccc3F)nc12` [CBK149283], 95.5%.
Regarding `Cc1cc(C)cc(OC(C)C(=O)N2CCCc3c(cnn3C)C2)c1` (stereo not shown) [CBK285270], the viability at 28.5 h, 10 µM turned out to be 82.1%.
On the same count and under the same terms, as for `FC(F)(F)c1cccc(CC2CSC(=S)N2)c1` (stereo not shown) [CBK022895], the figure is 92.2%.
Still for that read-out and setting: the value for `Cc1nn2c(=O)cc(C(=O)O)[nH]c2c1-c1ccccc1` [CBK287129] was 88.2%.
As for `O=C(Cc1ccc(Cl)cc1)Nc1cccc(C(=O)Nc2ccccc2C(=O)O)c1` [CBK264750], the viability at 28.5 h, 10 µM amounted to 107%.
Consider `C[C@@H]1C[C@H](C(F)(F)F)n2nc(C3CCCN3C(=O)C3CC3)cc2N1` (stereo partly shown) [CBK285432], for which the viability at 28.5 h, 10 µM is 90.6%.
The same measure, in the same setting: as for `CSCC(O)Cn1nc(O)cc(C)c1=O` (stereo not shown) [CBK006293], the figure is 105%; as for `CC(C)c1nsc(NS(=O)(=O)c2cc(OCC(F)(F)F)ccc2OCC(F)(F)F)n1` [CBK051262], 106%; as for `Cc1ccccc1OCCCn1cncc1-c1cn(C)nc1C` [CBK281813], 85.1%.
The same measure, in the same setting: the value for `Cc1nc(C)c(-c2csc(Nc3ccc(S(N)(=O)=O)cc3)n2)s1` [CBK263292B] was 95.8%; that for `CCn1c(SCc2cc(Cl)c3c(c2)OCCO3)nnc1-c1ccc(OC)cc1` [CBK297086] was 88.9%; that for `COc1ccc(Nc2nc(-c3cc(C(C)C)ccc3OC)cn3ccnc23)cn1` [CBK066354] was 84.3%.
The same measure, in the same setting: the value for `NC(=O)CN1CC2(CCN(Cc3cccc4cccnc34)CC2)c2ccccc21` [CBK137021] was 123%; that for `CN1CCN(C(=O)CCCN2C(=O)c3cccc4cccc(c34)C2=O)CC1` [CBK262383] was 96.9%; that for `Cc1n[nH]c(C)c1CCC(=O)N/N=C\c1cccc(Oc2ccccc2)c1` [CBK263384] was 98.8%.
